Test results reported in patent publication US6335350B1, “Acetamide and substituted acetamide-containing thiourea inhibitors of herpes viruses” (American Home Products Corporation, priority 1998, dated 2002).
In brackets after ≈: the same amount, converted by molar mass. Like-named read-outs stand apart in the source and are kept apart here.

Columns and labels:
HSV-1 = test: HSV Antiviral (ELISA) Assay; assay type: cell-based, herpes simplex virus type 1; settings: for IC50: Human alphaherpesvirus 1, Vero, read-out: IC50 Ug/ml HSV
In short: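 Replication measured as glycoprotein D signal in fixed cells: anti-gD antibody plus β-galactosidase-linked secondary, fluorogenic substrate read at 365/450 nm. Vero cells (2% FBS DMEM) received compound 30 min pre-infection, HSV-1 MOI 0.006, ~24 h incubation; IC50 relative to no-compound fluorescence.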

VZV strain Ellen = test: VZV Antiviral (ELISA) Assay; assay type: cell-based, varicella-zoster virus; settings: human foreskin fibroblast cells; for IC50 / inhibition at 10 µg/mL: Human alphaherpesvirus 3, Fibroblast; for IC50: read-out: IC50 Ug/ml VZV; for inhibition at 10 µg/mL: read-out: % inhibition 10 ug/ml VZV, 10 ug/ml
In short: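 Antiviral IC50 is derived by comparing fluorescence with and without compound after a three-day culture of VZV-infected plus uninfected foreskin fibroblasts. Replication is quantified by ELISA against glycoprotein II, using a β-galactosidase secondary and methyl umbelliferyl-β-D-galactoside.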

HCMV wild-type = test: HCMV yield assay; assay type: cell-based, human cytomegalovirus; settings: for IC50: Human betaherpesvirus 5, Fibroblast, read-out: IC50 Ug/ml HCMV
In short: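 Value is the compound amount cutting virus yield titer by 50% (IC50) or 90% (IC90). Human foreskin fibroblasts infected with wild-type HCMV (MOI typically 0.2) under varying compound; progeny harvested day 3, titered compound-free on fibroblasts, plaques scored at 2 weeks.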

Row | IC50 Ug/ml HSV (HSV-1; Vero cells, HSV-1) | IC50 (HSV-1; Vero cells, HSV-1) | SMILES | % inhibition 10 ug/ml VZV (VZV strain Ellen) | IC50 Ug/ml VZV (VZV strain Ellen) | IC50 Ug/ml HCMV (HCMV wild-type; human foreskin fibroblasts) | IC50 (VZV strain Ellen) | inhibition at 10 µg/mL (VZV strain Ellen) | IC50 (HCMV wild-type; human foreskin fibroblasts) | IC50 (HSV-1) | IC50 (HCMV wild-type)
1 | >10 Ug/ml | – | CC(=O)Nc1ccc(NC(=S)Nc2ccc(NC(=O)CN(C)C)c(Cl)c2)cc1 [Example 360, N-{4-[3-(4-Acetylamino-phenyl)-thioureido]-2-chloro-phenyl}-2-dimethyl-amino-acetamide] | 16% | >10 Ug/ml | >10 Ug/ml | – | – | – | – | –
2 | – | > 10 µg/mL | CC(=O)Nc1ccc(NC(=S)Nc2ccc(NC(=O)CN3CCCCC3)c(Cl)c2)cc1 [Example 363, N-{4-[3-(4-Acetylamino-phenyl)-thioureido]-2-chloro-phenyl}-2-piperidin-1-yl-acetamide] | – | – | – | > 10 µg/mL | 58% | 7 µg/mL (≈ 15.2 µM) | – | –
3 | – | > 10 µg/mL | CC(=O)Nc1ccc(NC(=S)Nc2ccc(NC(=O)CN3CCOCC3)c(Cl)c2)cc1 [Example 366, N-{4-[3-(4-Acetylamino-phenyl)-thioureido]-2-chloro-phenyl}-2-morpholin-4-yl-acetamide] | – | – | – | > 10 µg/mL | 16% | > 10 µg/mL | – | –
4 | – | > 10 µg/mL | CC(=O)Nc1ccc(NC(=S)Nc2ccc(NS(C)(=O)=O)c(Cl)c2)cc1 [Example 369, N-{4-[3-(3-Chloro-4-methanesulfonylamino-phenyl)-thioureido]-phenyl}-acetamide] | – | – | – | > 10 µg/mL | 0% | > 10 µg/mL | – | –
5 | – | > 10 µg/mL | CC(=O)Nc1ccc(NC(=S)Nc2ccc(NC(=O)CSCCN(C)C)c(Cl)c2)cc1 [Example 372, N-{4-[3-(4-Acetylamino-phenyl)-thioureido]-2-chloro-phenyl}-2-(2-dimethylamino-ethylsulfanyl)-acetamide] | – | – | – | > 10 µg/mL | 53% | > 10 µg/mL | – | –
6 | – | 3 µg/mL (≈ 8.67 µM) | C=Cc1ccc(NC(=S)Nc2ccc(NC(C)=O)cc2)cc1Cl [Example 377, N-{4-[3-(3-Chloro-4-vinyl-phenyl)-thioureido]-phenyl}-acetamide] | – | – | – | > 10 µg/mL | 28% | 0.8 µg/mL (≈ 2.31 µM) | – | –
7 | – | > 10 µg/mL | COc1cc(OC)c(NC(=S)Nc2ccc(NC(C)=O)cc2C#N)cc1Cl [Example 383, N-{4-[3-(5-Chloro-2,4-dimethoxy-phenyl)-thioureido]-3-cyano-phenyl}-acetamide] | – | – | – | > 10 µg/mL | 38% | > 10 µg/mL | – | –
8 | >10 Ug/ml | – | CCN(CC)CC(=O)Nc1ccc(NC(=S)Nc2ccc(NC(C)=O)cc2)cc1Cl [Example 412, N-{4-[3-(4-Acetylamino-phenyl)-thioureido]-2-chloro-phenyl}-2-diethyl-amino-acetamide] | 29% | >10 Ug/ml | >10 Ug/ml | – | – | – | – | –
9 | – | – | CC(=O)Nc1ccc(NC(=S)Nc2ccccc2)cc1 [Example 814, N-[4-(3-Phenyl-thioureido)-phenyl]-acetamide] | – | – | – | > 10 µg/mL | 15% | – | > 10 µg/mL | > 10 µg/mL
10 | – | 20 µg/mL (≈ 62.5 µM) | CC(=O)Nc1ccc(NC(=S)Nc2cccc(Cl)c2)cc1 [Example 816, N-{4-[3-(3-Chloro-phenyl)-thioureido]-phenyl}-acetamide] | – | – | – | > 10 µg/mL | 30% | 25 µg/mL (≈ 78.2 µM) | – | –
11 | – | 3 µg/mL (≈ 6.24 µM) | CCCCCC(=O)Nc1ccc(NC(=S)Nc2cc(Br)c(OC)cc2OC)cc1 [Example 826, Hexanoic acid {4-[3-(5-bromo-2,4-dimethoxy-phenyl)-thioureido]-phenyl}-amide] | – | – | – | > 10 µg/mL | 30% | > 10 µg/mL | – | –
12 | – | 3 µg/mL (≈ 7.62 µM) | CCOc1cc(OC)c(Cl)cc1NC(=S)Nc1ccc(NC(C)=O)cc1 [Example 831, N-{4-[3-(5-Chloro-2-ethoxy-4-methoxy-phenyl)-thioureido]-phenyl}-acetamide] | – | – | – | > 10 µg/mL | 11% | > 10 µg/mL | – | –
13 | – | 9 µg/mL (≈ 22.8 µM) | CCOc1cc(OC)c(NC(=S)Nc2ccc(NC(C)=O)cc2)cc1Cl [Example 832, N-{4-[3-(5-Chloro-4-ethoxy-2-methoxy-phenyl)-thioureido]-phenyl}-acetamide] | – | – | – | > 10 µg/mL | 15% | > 50 µg/mL | – | –
14 | – | 8 µg/mL (≈ 17.5 µM) | COc1cc(OCc2ccccc2)c(NC(=S)Nc2ccc(NC(C)=O)cc2)cc1Cl [Example 835, N-{4-[3-(2-Benzyloxy-5-chloro-4-methoxy-phenyl)-thioureido]-phenyl}-acetamide] | – | – | – | > 10 µg/mL | 38% | > 10 µg/mL | – | –
15 | – | 8 µg/mL (≈ 17.5 µM) | COc1cc(OCc2ccccc2)c(Cl)cc1NC(=S)Nc1ccc(NC(C)=O)cc1 [Example 836, N-{4-[3-(4-Benzyloxy-5-chloro-2-methoxy-phenyl)-thioureido]-phenyl}-acetamide] | – | – | – | 2.5 µg/mL (≈ 5.48 µM) | 92% | > 10 µg/mL | – | –
16 | – | > 50 µg/mL | COc1cc(OCC(N)=O)c(Cl)cc1NC(=S)Nc1ccc(NC(C)=O)cc1 [Example 838, 2-{4-[3-(4-Acetylamino-phenyl)-thioureido]-2-chloro-5-methoxy-phenoxy}-acetamide] | – | – | – | > 10 µg/mL | 20% | > 10 µg/mL | – | –
17 | – | 10 µg/mL (≈ 27.3 µM) | COc1cc(O)c(NC(=S)Nc2ccc(NC(C)=O)cc2)cc1Cl [Example 839, N-{4-[3-(5-Chloro-2-hydroxy-4-methoxy-phenyl)-thioureido]-phenyl}-acetamide] | – | – | – | > 10 µg/mL | 17% | 15 µg/mL (≈ 41 µM) | – | –
18 | – | 1.5 µg/mL (≈ 4.1 µM) | CSc1ccc(NC(=S)Nc2ccc(NC(C)=O)cc2)cc1Cl [Example 840, N-{4-[3-(3-Chloro-4-methylsulfanyl-phenyl)-thioureido]-phenyl}-acetamide] | – | – | – | > 10 µg/mL | 0% | 0.4 µg/mL (≈ 1.09 µM) | – | –
19 | – | > 10 µg/mL | CC(=O)Nc1ccc(NC(=S)Nc2ccc(N(C)c3ccccc3)c(Cl)c2)cc1 [Example 842, N-(4-{3-[3-Chloro-4-(methyl-phenyl-amino)-phenyl]-thioureido}-phenyl)-acetamide] | – | – | – | > 10 µg/mL | 33% | 1.5 µg/mL (≈ 3.53 µM) | – | –
20 | – | 5 µg/mL (≈ 9.84 µM) | CC(=O)Nc1ccc(NC(=S)Nc2ccc(N(C)C3CCN(Cc4ccccc4)C3)c(Cl)c2)cc1 (stereo not shown) [Example 843, N-[4-(3-{4-[(1-Benzyl-pyrrolidin-3-yl)-methyl-amino]-3-chloro-phenyl}-thioureido)-phenyl]-acetamide] | – | – | – | > 10 µg/mL | 50% | 0.7 µg/mL (≈ 1.38 µM) | – | –
21 | – | 15 µg/mL (≈ 36 µM) | CC(=O)Nc1ccc(NC(=S)Nc2ccc(N(C)C3CCCC3)c(Cl)c2)cc1 [Example 844, N-(4-{3-[3-Chloro-4-(cyclopentyl-methyl-amino)-phenyl]-thioureido}-phenyl)-acetamide] | – | – | – | > 10 µg/mL | 32% | 0.8 µg/mL (≈ 1.92 µM) | – | –
22 | – | 20 µg/mL (≈ 46.3 µM) | CC(=O)Nc1ccc(NC(=S)Nc2ccc(N(C)C3CCN(C)C3)c(Cl)c2)cc1 (stereo not shown) [Example 845, N-[4-(3-{3-Chloro-4-[methyl-(1-methyl-pyrrolidin-3-yl)-amino]-phenyl}-thioureido)-phenyl]-acetamide] | – | – | – | > 10 µg/mL | 25% | 1 µg/mL (≈ 2.31 µM) | – | –
23 | – | > 10 µg/mL | CC(=O)Nc1ccc(NC(=S)Nc2ccc(C(C)O)c(Cl)c2)cc1 (stereo not shown) [Example 862, N-(4-{3-[3-Chloro-4-(1-hydroxy-ethyl)-phenyl]-thioureido}-phenyl)-acetamide] | – | – | – | > 10 µg/mL | 10% | 2 µg/mL (≈ 5.5 µM) | – | –
24 | – | > 10 µg/mL | CC(=O)Nc1ccc(NC(=S)Nc2ccc(CCO)c(Cl)c2)cc1 [Example 864, N-(4-{3-[3-Chloro-4-(2-hydroxy-ethyl)-phenyl]-thioureido}-phenyl)-acetamide] | – | – | – | > 10 µg/mL | 21% | > 10 µg/mL | – | –
25 | 10 Ug/ml | – | COc1c(NC(=S)Nc2ccc(NC(C)=O)cc2)cc(Cl)c(C)c1Cl [Example 876, N-{4-[3-(3,5-Dichloro-2-methoxy-4-methyl-phenyl)-thioureido]-phenyl}-acetamide] | – | – | – | > 10 µg/mL | 58% | 1 µg/mL (≈ 2.51 µM) | – | –

Row | SMILES | IC50 Ug/ml HSV (HSV-1; Vero cells, HSV-1) | IC50 (HSV-1; Vero cells, HSV-1) | % inhibition 10 ug/ml VZV (VZV strain Ellen) | IC50 Ug/ml VZV (VZV strain Ellen) | IC50 Ug/ml HCMV (HCMV wild-type; human foreskin fibroblasts) | IC50 (VZV strain Ellen) | inhibition at 10 µg/mL (VZV strain Ellen) | IC50 (HCMV wild-type; human foreskin fibroblasts) | IC50 (HSV-1) | IC50 (HCMV wild-type)
26 | CCCCOc1cc(OC)c(Cl)cc1NC(=S)Nc1ccc(NC(C)=O)cc1 [Example 833, N-{4-[3-(2-Butoxy-5-chloro-4-methoxy-phenyl)-thioureido]-phenyl}-acetamide] | – | 7 µg/mL (≈ 16.6 µM) | – | – | – | > 10 µg/mL | 54% | > 10 µg/mL | – | –
27 | CCCCOc1cc(OC)c(NC(=S)Nc2ccc(NC(C)=O)cc2)cc1Cl [Example 834, N-{4-[3-(4-Butoxy-5-chloro-2-methoxy-phenyl)-thioureido]-phenyl}-acetamide] | – | 10 µg/mL (≈ 23.7 µM) | – | – | – | 15 µg/mL (≈ 35.5 µM) | 93% | > 10 µg/mL | – | –
28 | CC(=O)Nc1ccc(NC(=S)Nc2ccc(N(C)C3CCN(C)CC3)c(Cl)c2)cc1 [Example 841, N-[4-(3-{3-Chloro-4-[methyl-(1-methyl-piperidin-4-yl)-amino]-phenyl}-thioureido)-phenyl]-acetamide] | – | > 50 µg/mL | – | – | – | > 10 µg/mL | 30% | 0.9 µg/mL (≈ 2.02 µM) | – | –
